Source: patent publication US5643908A, “Collagenase inhibitor” (Sankyo Company, Limited, priority 1991, dated 1997)
Residues, ends and D or L forms follow the SMILES beside them. *: point of attachment. Cbz = O=C(OCc1ccccc1)*; NHOH = ON*

System: collagenase
Assay: not given
Settings: cited from earlier work

In the case of `CC(C)C[C@H](NC(=O)[C@@H]1CCCN1C(=O)OCc1ccccc1)C(=O)NCC(=O)NO` [benzyloxycarbonyl propyl-leucyl-glycylhydroxamic acid] (Cbz-Pro-Leu-Gly-{NHOH}), the collagenase inhibiting activity is given as “showing collagenase inhibiting effects”.
For `CCCCCC(CC(=O)NO)C(=O)N1NCCCC1C(=O)NC(CC(C)C)C(C)=O` (stereo not drawn), the collagenase inhibiting activity is listed as “collagenase inhibiting activities”.

System: type IV collagenases
Assay: not given
Settings: cited from earlier work

In the case of `CNC(=O)[C@H](Cc1ccc(OC)cc1)NC(=O)[C@@H](CC(=O)NO)CC(C)C` [SC 44463], the “inhibitor relatively specific to type IV collagenases” value is listed as “inhibitor relatively specific to type IV collagenases”.

System: aminopeptidase M
Assay: not given
Settings: low concentrations; cited from earlier work

In the case of `CCCCC[C@H](CC(=O)NO)C(=O)N[C@H](C(=O)N1CCC[C@H]1CO)C(C)C` [actinonin], the “inhibition of aminopeptidase M” value is given as “inhibit aminopeptidase M at low concentrations”.

System: cancer metastasis
Assay: not given
Settings: animal experiment; cited from earlier work

In the case of `CNC(=O)[C@H](Cc1ccc(OC)cc1)NC(=O)[C@@H](CC(=O)NO)CC(C)C` [SC 44463], the “inhibitory activity on cancer metastasis” value is given as “confirmed to exhibit an inhibitory activity on cancer metastasis”.

Molecular target: T1, type IV collagenases (Homo sapiens, UniProt P08253)
T1 construct: type IV collagenases prepared from a serum-free culture medium of human melanoma cells; endogenous in cells
T1 sequence (P08253 110-660): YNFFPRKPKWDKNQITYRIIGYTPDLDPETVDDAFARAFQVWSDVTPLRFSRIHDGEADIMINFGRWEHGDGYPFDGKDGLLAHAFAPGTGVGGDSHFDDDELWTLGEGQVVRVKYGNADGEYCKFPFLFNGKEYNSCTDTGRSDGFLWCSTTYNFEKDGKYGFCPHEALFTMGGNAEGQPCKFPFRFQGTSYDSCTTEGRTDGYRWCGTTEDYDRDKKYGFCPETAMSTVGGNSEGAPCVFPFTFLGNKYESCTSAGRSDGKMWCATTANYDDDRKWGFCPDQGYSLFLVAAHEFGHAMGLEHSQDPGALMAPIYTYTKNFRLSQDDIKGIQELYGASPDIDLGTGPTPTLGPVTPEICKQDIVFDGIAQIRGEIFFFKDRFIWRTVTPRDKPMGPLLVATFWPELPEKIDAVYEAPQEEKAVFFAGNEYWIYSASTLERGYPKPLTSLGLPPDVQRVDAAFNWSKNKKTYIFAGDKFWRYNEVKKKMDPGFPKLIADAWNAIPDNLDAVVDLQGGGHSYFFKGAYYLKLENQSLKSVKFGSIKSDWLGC
Assay: Inhibitory activity on type IV collagenases: cleavage of radio-labelled type IV collagen
Format: biochemical
Settings: type IV collagenases from serum-free culture medium of human melanoma cells; radio-labelled type IV collagen from mouse EHS tumor as substrate
Procedure: The activity of type IV collagenase was assayed according to the method of Salo et al. [J. Biol. Chem., Vol. 258, 3058-3063 (1983)].
In detail, the activity was assayed by measuring the cleavage of collagen by using type IV collagenases prepared from a serum-free culture medium of human melanoma cells, and type IV collagen prepared from mouse EHS tumor radio-labelled as a substrate.
The inhibitory activity on type IV collagenases was measured by calculating the inhibition percent of the enzyme reaction, in which the test samples were added to the reaction mixture.
The results (expressed as I50) is shown below.

Going from `CN(C)C(=O)[C@@H]1CCCNN1C(=O)[C@H](CCc1ccccc1)CC(=O)NO` [Example 21, N^2-[2-(R)-(Hydroxyaminocarbonyl)methyl-1-oxo-4-phenylbutyl]-(S)-piperazic acid N,N-dimethylamide] to `CNC(=O)[C@@H]1CCCNN1C(=O)[C@H](CCc1ccccc1)CC(=O)NO` [Example 20, N^2-[2-(R)-(Hydroxyaminocarbonyl)methyl-1-oxo-4-phenylbutyl]-(S)-piperazic acid N-methylamide], the IC50 falls from 280 nM to 73 nM (3.8-fold). The second is the more potent here.

First: CCCCCCC[C@H](CC(=O)NO)C(=O)N1NCCC[C@H]1C(=O)NC [Example 16, N^2-[2-(R)-(Hydroxyaminocarbonyl)methyl-1-oxononyl]-(S)-piperazic acid N-methylamide]
Second: CCCCCC[C@H](CC(=O)NO)C(=O)N1NCCC[C@H]1C(=O)NC [Example 14, N^2-[2-(R)-(Hydroxyaminocarbonyl)methyl-1-oxooctyl]-(S)-piperazic acid N-methylamide]
The IC50 of the first is 2-fold lower: 42 nM for the first, 82 nM for the second.

Compared with `CCCCCCCC[C@H](CC(=O)NO)C(=O)N1NCCC[C@H]1C(=O)N(CC)CC` [Example 35, N^2-[2-(R)-(Hydroxyaminocarbonyl)methyl-1-oxodecyl]-(S)-piperazic acid N,N-diethylamide], `CCCCCCCC[C@H](CC(=O)NO)C(=O)N1NCCC[C@H]1C(=O)N(C)C` [Example 33, N^2-[2-(R)-(Hydroxyaminocarbonyl)methyl-1-oxodecyl]-(S)-piperazic acid N,N-dimethylamide] is 3.1-fold lower in IC50: 200 nM for the first, 64 nM for the second. The second is the more potent here.

Going from `CCCCCCC[C@H](CC(=O)NO)C(=O)N1NCCC[C@H]1C(=O)N(C)C` [Example 17, N^2-[2-(R)-(Hydroxyaminocarbonyl)methyl-1-oxononyl]-(S)-piperazic acid N,N-dimethylamide] to `CCCCCCCCCC[C@H](CC(=O)NO)C(=O)N1NCCC[C@H]1C(=O)N(C)C` [Example 19, N^2-[2-(R)-(Hydroxyaminocarbonyl)methyl-1-oxododecyl]-(S)-piperazic acid N,N-dimethylamide], the IC50 falls from 270 nM to 80 nM (3.4-fold). The second is the more potent here.

`CCCCC[C@H](CC(=O)NO)C(=O)N1NCCC[C@H]1C(=O)N[C@H](C(=O)N(C)OC)C(C)C` [Example 3, 2-(S)-[N^2-[2-(R)-(Hydroxyaminocarbonyl)methyl-1-oxoheptyl]-(S)-piperazyl]aminoisovaleric acid N-methyl-N-methoxyamide] and `CCCCC[C@H](CC(=O)NO)C(=O)N1NCCC[C@H]1C(=O)N[C@H](C(=O)OC)C(C)C` [Example 4, Methyl 2-(S)-[N^2-[2-(R)-(Hydroxyaminocarbonyl)methyl-1-oxoheptyl]-(S)-piperazyl]aminoisovalerate] are within 1.5-fold of each other in IC50: 330 nM for the first, 350 nM for the second.

Going from `CCCCC[C@H](CC(=O)NO)C(=O)N1NCCC[C@H]1C(=O)N[C@@H](C(=O)CC)[C@H](C)CC` [Example 109, N^2-[2-(R)-(Hydroxyaminocarbonyl)methyl-1-oxoheptyl]-(S)-piperazic acid (4R,5R)-5-methyl-3-oxoheptan-4-ylamide, reference compound] to `CCCCC[C@H](CC(=O)NO)C(=O)N1NCCC[C@@H]1C(=O)N[C@H](C(=O)CC)[C@@H](C)CC` [Example 110, N^2-[2-(R)-(Hydroxyaminocarbonyl)methyl-1-oxoheptyl]-(R)-piperazic acid (4S,5S)-methyl-3-oxoheptan-4-ylamide, reference compound], the IC50 rises from 4300 nM to 18500 nM (4.3-fold).

Compared with `CCCCCCCC[C@H](CC(=O)NO)C(=O)N1NCCC[C@H]1C(=O)NCC` [Example 34, N^2-[2-(R)-(Hydroxyaminocarbonyl)methyl-1-oxodecyl]-(S)-piperazic acid N-ethylamide], `CCCCC[C@H](CC(=O)NO)C(=O)N1NCCC[C@H]1C(=O)NCC` [Example 27, N^2-[2-(R)-(Hydroxyaminocarbonyl)methyl-1-oxoheptyl]-(S)-piperazic acid N-ethylamide] is 4.3-fold higher in IC50: 37 nM for the first, 160 nM for the second.

First: CC(C)C[C@H](CC(=O)NO)C(=O)N1NCCC[C@H]1C(=O)N(C)C [Example 32, N^2-[2-(R)-(Hydroxyaminocarbonyl)methyl-1-oxo-4-methyl-pentyl]-(S)-piperazic acid N,N-dimethylamide]
Second: CCCCC[C@H](CC(=O)NO)C(=O)N1NCCC[C@H]1C(=O)NCC(C)C [Example 30, N^2-[2-(R)-(Hydroxyaminocarbonyl)methyl-1-oxoheptyl]-(S)-piperazic acid N-isobutylamide]
The IC50 of the first is 3.1-fold higher: 750 nM for the first, 240 nM for the second.

Compared with `CCCCC[C@H](CC(=O)NO)C(=O)N1NCCC[C@H]1C(N)=O` [Example 29, N^2-[2-(R)-(Hydroxyaminocarbonyl)methyl-1-oxoheptyl]-(S)-piperazylamide], `CCCCCCCCCC[C@H](CC(=O)NO)C(=O)N1NCCC[C@H]1C(=O)NC` [Example 18, N^2-[2-(R)-(Hydroxyaminocarbonyl)methyl-1-oxododecyl]-(S)-piperazic acid N-methylamide] is 9.3-fold lower in IC50: 250 nM for the first, 27 nM for the second. The second is the more potent here.

Compared with `CCCCC[C@H](CC(=O)NO)C(=O)N1NCCC[C@H]1C(=O)N[C@H](C(=O)CC)[C@@H](C)CC` [Example 108, reference compound], `CCCCC[C@H](CC(=O)NO)C(=O)N1NCCC[C@H]1C(=O)N[C@H](C(=O)OC(C)(C)C)C(C)C` [Example 5] is 3.9-fold lower in IC50: 1400 nM for the first, 360 nM for the second.

System: bacteria
Assay: not given
Settings: cited from earlier work

For `CCCCCC(CC(=O)NO)C(=O)N1NCCCC1C(=O)NC(C(=O)CC)C(C)CC` (stereo not drawn), the antibacterial activity is listed as “antibacterial activity”.
In the case of `CCCCCC(CC(=O)NO)C(=O)N1NCCCC1C(=O)NC(CC(C)C)C(C)=O` (stereo not drawn), the antibacterial activity is listed as “antibacterial”.
